# Patent US20240124418A1 (BioTheryX, Inc., priority 2020, published 2024)
# Test system: TNF-α
# Assay: Cell-based TNF-α inhibition assay (LPS-induced PBMCs, Meso Scale)
# Settings: PBMC, PBMCs pretreated 1 h, LPS 100 ng/mL 18-24 h, percentage of stimulated DMSO control; for inhibition at 0.1 µM: compound concentration 0.1 μM; for inhibition at 1 µM: compound concentration 1 μM
# Experimental: Example B1. Cell-Based TNF-α Inhibition Assay
# Frozen primary blood mononuclear cells (PBMCs) were quick thawed, washed once with RPMI 1640 media supplemented with 10% fetal bovine serum, 1% penicillin, and 1% streptomycin, and plated in a 96 well plate at 200,000 cells per well. The cells were pretreated with DMSO only as a control or a compound for 1 h, and then induced with LPS (lipopolysaccharide) (100 ng/mL) for 18-24 h. The supernatant was analyzed for TNF-α using the Meso Scale assay. Compound activity was determined as a percentage of the stimulated DMSO control. The results are summarized in Table 1, where A represents a percent inhibition value ≥60%; B represents a percent inhibition value <60% and ≥40%; C represents a percent inhibition value <40% and ≥20%; and D represents a single percent inhibition value <20%.
smiles,measurement,value
"CCOc1cc([C@@H](CS(C)(=O)=O)N2C(=O)c3cccc(NC(=O)CCCCCCNCc4ccc(OCc5scc6c5CN([C@H]5CCC(=O)NC5=O)C6=O)cc4)c3C2=O)ccc1OC [Compound A38, 7-((4-((5-((S)-2,6-Dioxopiperidin-3-yl)-4-oxo-5,6-dihydro-4H-thieno[3,4-c]pyrrol-1-yl)methoxy)benzyl)amino)-N-(2-((S)-1-(3-ethoxy-4-methoxyphenyl)-2-(methylsulfonyl)ethyl)-1,3-dioxoisoindolin-4-yl)heptanamide]",inhibition at 0.1 µM,≥ 60%
"O=C1CCC(N2Cc3c(csc3COc3ccc(CNCCCCCCCOc4cc(C(=O)Nc5c(Cl)cncc5Cl)ccc4OC(F)F)cc3)C2=O)C(=O)N1 (stereo not drawn) [Compound B18, N-(3,5-Dichloropyridin-4-yl)-4-(difluoromethoxy)-3-((7-((4-((5-(2,6-dioxo-piperidin-3-yl)-4-oxo-5,6-dihydro-4H-thieno[3,4-c]pyrrol-1-yl)methoxy)benzyl)amino)heptyl)-oxy)benzamide]",inhibition at 0.1 µM,≥ 60%
same,inhibition at 1 µM,≥ 60%
"O=C1CCC(N2Cc3c(cc(F)cc3C3CCN(CCCCCCCCCOc4ccc(C(=O)Nc5c(Cl)cncc5Cl)cc4OCC4CC4)CC3)C2=O)C(=O)N1 (stereo not drawn) [Compound B12, 3-(Cyclopropylmethoxy)-N-(3,5-dichloropyridin-4-yl)-4-((9-(4-(2-(2,6-dioxopiperidin-3-yl)-6-fluoro-1-oxoisoindolin-4-yl)piperidin-1-yl)nonyl)oxy)benzamide]",inhibition at 0.1 µM,20 to 40%
"CCOc1cc([C@@H](CS(C)(=O)=O)N2C(=O)c3cccc(NC(=O)CCCCCCCCCN4CCN(CC(=O)Nc5cccc(C6CCC(=O)NC6=O)c5)CC4)c3C2=O)ccc1OC (stereo partly drawn) [Compound A88, 10-[4-({[3-(2,6-Dioxopiperidin-3-yl)phenyl]carbamoyl}methyl)piperazin-1-yl]-N-{2-[(1S)-1-(3-ethoxy-4-methoxyphenyl)-2-methanesulfonylethyl]-1,3-dioxo-2,3-dihydro-1H-isoindol-4-yl}decanamide]",inhibition at 0.1 µM,≥ 60%
same,inhibition at 1 µM,≥ 60%
"CCOc1cc([C@@H](CS(C)(=O)=O)N2C(=O)c3cc(CCCCCCCCCCCCNc4cccc(NC5CCC(=O)NC5=O)c4)cc(N)c3C2=O)ccc1OC (stereo partly drawn) [Compound A90, 4-Amino-6-[12-({3-[(2,6-dioxopiperidin-3-yl)amino]phenyl}amino)dodecyl]-2-[(1S)-1-(3-ethoxy-4-methoxyphenyl)-2-methanesulfonylethyl]-2,3-dihydro-1H-isoindole-1,3-dione]",inhibition at 0.1 µM,≥ 60%
same,inhibition at 1 µM,≥ 60%
"CCOc1cc([C@@H](CS(C)(=O)=O)N2C(=O)c3cccc(NC(=O)CCCCCCCCCCN(C)Cc4ccc(OCc5scc6c5CN(C5CCC(=O)NC5=O)C6=O)cc4)c3C2=O)ccc1OC (stereo partly drawn) [Compound A46, 11-{[(4-{[5-(2,6-Dioxopiperidin-3-yl)-4-oxo-4H,5H,6H-thieno[3,4-c]pyrrol-1-yl]methoxy}phenyl)methyl](methyl)amino}-N-{2-[(1S)-1-(3-ethoxy-4-methoxyphenyl)-2-methanesulfonylethyl]-1,3-dioxo-2,3-dihydro-1H-isoindol-4-yl}undecanamide]",inhibition at 0.1 µM,≥ 60%
same,inhibition at 1 µM,≥ 60%
"CCOc1cc([C@@H](CS(C)(=O)=O)N2C(=O)c3cccc(NC(=O)CCCc4cn(CCN5CCC(c6cc7c(cc6F)C(=O)N(C6CCC(=O)NC6=O)C7)CC5)nn4)c3C2=O)ccc1OC (stereo partly drawn) [Compound A24, 4-[1-(2-{4-[2-(2,6-Dioxopiperidin-3-yl)-6-fluoro-1-oxo-2,3-dihydro-1H-isoindol-5-yl]piperidin-1-yl}ethyl)-1H-1,2,3-triazol-4-yl]-N-{2-[(1S)-1-(3-ethoxy-4-methoxyphenyl)-2-methanesulfonylethyl]-1,3-dioxo-2,3-dihydro-1H-isoindol-4-yl}butanamide]",inhibition at 0.1 µM,≥ 60%
same,inhibition at 1 µM,≥ 60%
